Columns and labels:
[1] = test system: ATF6-regulated genes Grp78 and Cat; experiment: ATF6 target gene induction in mouse tissues after intravenous administration (qPCR, IHC, immunoblot); details: in vivo, mouse heart
Procedure: (§1) Immunoblot analysis. NRVM were lysed and subjected to immunoblot analysis, as previously described^10. In brief, cultures were lysed with VC lysis buffer made from 20 mM Tris-HCl (pH 7.5), 150 mM NaCl, 0.1% SDS, 1% Triton X-100™, protease inhibitor cocktail (Roche Diagnostics, Indianapolis, IN) and phosphatase inhibitor cocktail (Roche Diagnostics). Samples comprising 10 μg of protein were mixed with Laemmli sample buffer, boiled, then subjected to SDS-PAGE followed by transfer onto PVDF membranes for immunoblotting. Full-length Atf6 (p90) was detected with an antibody from SAB Signalway™ Antibody (1:1000, cat #32008, College Park, MD), while active Atf6 (p50) was detected with an antibody from Proteintech™ (1:1000, cat #24169-1-AP, Rosemont, IL). […] The oxidation state of ATF6 in NRVM treated with compound 147 was analyzed by gel-shift essentially as previously described^32. […]
(§2) Malondialdehyde assay. Lipid peroxidation was determined by measuring the levels of malondialdehyde (MDA) using a TBARS assay kit (Cayman Chemical, Ann Arbor, MI) according to the manufacturer's instructions as previously described^10. […]

[2] = test system: IRE1-regulated Erdj4, PERK-regulated Atf4; experiment: qPCR for IRE1 and PERK target genes in mouse hearts; type: in vivo; details: WT or ATF6 cKO mice, 24 hours after treatment, LV
Procedure: as §1, §2

[3] = test system: hearts of mice that were not subjected to I/R; experiment: 7-day dosing protocols in mice not subjected to I/R: cardiac performance and safety; type: in vivo, mouse
Procedure: In vivo myocardial ischemia/reperfusion. Surgical myocardial I/R was performed as previously described^10. Briefly, mice were anesthetized with 2% isoflurane and a thoracotomy was performed to isolate the heart, after which the left anterior descending coronary artery (LAD) was ligated with a 6-0 Prolene™ suture for 30 minutes, followed by suture removal and either 24 hours or 7 days of reperfusion. Regional ischemia was confirmed by visual inspection of the discoloration of the myocardium distal of the ligation, which is characteristic of impaired blood flow. Animals assigned as shams underwent the thoracotomy surgical procedure, but weren't subjected to LAD ligation. Animals were randomly assigned to trial groups prior to outset of the experiment by a single investigator, while the surgeon and data analyst were blinded to trial assignments. Animals designated to receive either control compound or compound 147 at the time of reperfusion received 2 mg/kg of respective compounds via IV injection 5 minutes prior to release of the ligation. Twenty-four hours after reperfusion, 1% of Evans Blue was injected apically to determine the area at risk (AAR). Hearts were harvested and 1-mm sections of the hearts were stained with 1% 2,3,5-triphenyltetrazolium chloride (TTC) to measure the infarcted area (INF) as previously described^36. The AAR, INF and left ventricle area (LV) from digitized images of heart sections were analyzed using ImageJ software. […] A separate investigator analyzed the AAR, INF, and LV and was blinded to the animal trial assignments. […] Blood was placed in heparin- and EDTA-coated vacutainer (BD Vacutainer) and centrifuged at 3000 rpm for 10 minutes and plasma samples were analyzed for cardiac troponin I with a Mouse cTnI High-Sensitivity ELISA kit (Life Diagnostics, Inc.).
Hepatic triglyceride assay. Hepatic triglyceride assay was performed as previously described^39. Briefly, livers were harvested and 10 mg extracts were homogenized and analyzed for triglyceride content using the EnzyChrom Triglyceride Assay Kit™ (BioAssay Systems).
Transthoracic echocardiography. Transthoracic echocardiography was performed using an ultrasound imaging system (Vevo 2100 System™, Fujifilm VisualSonics, Toronto, Ontario, Canada) as described^40. Diastolic function was determined as previously described^33. Briefly, echocardiography coupled with pulse-wave Doppler was used to visualize transmitral flow velocities and were recorded by imaging the mitral orifice at the point of the mitral leaflets. Waveforms were recorded and analyzed for peak early- and late-diastolic transmitral flow velocities corresponding to E and A waves, respectively.
Malondialdehyde assay. Lipid peroxidation was determined by measuring the levels of malondialdehyde (MDA) using a TBARS assay kit (Cayman Chemical, Ann Arbor, MI) according to the manufacturer's instructions as previously described^10. In vivo experimental compound administration. Control compound and compound 147 were suspended to a final concentration of 0.2 mg/mL in 10% DMSO. Mice were weighed prior to administration of compounds and, subsequently, non-anesthetized 10-week old WT or ATF6 cKO mice were injected with ˜250 μL of stock compounds via the lateral tail vein depending upon body mass to ensure accurate administration of 2 mg/kg. […] Since compound 147 and tunicamycin have similar molecular weights, this dose of compound 147 is near the molar equivalent of the typical dose of tunicamycin. […]

[4] = test system: acute myocardial I/R injury; experiment: acute in vivo myocardial ischemia/reperfusion; parameters: species or system mouse; details: acute I/R protocol, 24 h
Procedure: In vivo myocardial ischemia/reperfusion. Surgical myocardial I/R was performed as previously described^10. Briefly, mice were anesthetized with 2% isoflurane and a thoracotomy was performed to isolate the heart, after which the left anterior descending coronary artery (LAD) was ligated with a 6-0 Prolene™ suture for 30 minutes, followed by suture removal and either 24 hours or 7 days of reperfusion. Regional ischemia was confirmed by visual inspection of the discoloration of the myocardium distal of the ligation, which is characteristic of impaired blood flow. Animals assigned as shams underwent the thoracotomy surgical procedure, but weren't subjected to LAD ligation. […] The AAR, INF and left ventricle area (LV) from digitized images of heart sections were analyzed using ImageJ software. […] A separate investigator analyzed the AAR, INF, and LV and was blinded to the animal trial assignments. […] Blood was placed in heparin- and EDTA-coated vacutainer (BD Vacutainer) and centrifuged at 3000 rpm for 10 minutes and plasma samples were analyzed for cardiac troponin I with a Mouse cTnI High-Sensitivity ELISA kit (Life Diagnostics, Inc.).
Transthoracic echocardiography. […] Diastolic function was determined as previously described^33. […] Waveforms were recorded and analyzed for peak early- and late-diastolic transmitral flow velocities corresponding to E and A waves, respectively. […]

[5] = general in vivo properties (brain penetration, tolerance)
Procedure: Malondialdehyde assay. Lipid peroxidation was determined by measuring the levels of malondialdehyde (MDA) using a TBARS assay kit (Cayman Chemical, Ann Arbor, MI) according to the manufacturer's instructions as previously described^10. In vivo experimental compound administration. Control compound and compound 147 were suspended to a final concentration of 0.2 mg/mL in 10% DMSO. Mice were weighed prior to administration of compounds and, subsequently, non-anesthetized 10-week old WT or ATF6 cKO mice were injected with ˜250 μL of stock compounds via the lateral tail vein depending upon body mass to ensure accurate administration of 2 mg/kg. […] Since compound 147 and tunicamycin have similar molecular weights, this dose of compound 147 is near the molar equivalent of the typical dose of tunicamycin. It is relevant to note that for compound 147, a dose of 2 mg/kg is similar to FDA-approved cardiovascular drugs, such as many angiotensin-converting enzyme (ACE) inhibitors, which are used in small-animal models at 2 mg/kg^42.

[6] = Trials 1-3, 7 days, mice without I/R

Cc1ccc(O)c(NC(=O)CCc2ccccc2)c1 [compound 147]
duration of ATF6-target gene induction [1]: ~3 days | expression levels of Erdj4 or Atf4 in hearts [2]: no effect | expression of pathology-associated genes Nppa, Nppb, Col1a1 or Myh7 [3, 6]: None of the dosing protocols resulted in | increased plasma cTnI [3, 6]: None of the dosing protocols resulted in | pathological cardiac hypertrophy (heart weight to body weight) [3, 6]: None of the dosing protocols resulted in | liver or kidney deficits (steatosis by hepatic triglyceride accumulation, glomerular filtration rate by creatinine clearance) ([3]; any of the trials, data not shown): no apparent deficits were observed | cardiotoxicity ([3]; over the course of 7 days): does not induce cardiotoxicity | cardiac performance, chamber size, or pathological hypertrophy by echocardiography [4]: no effect | blood brain barrier crossing [5]: has the capacity to cross the blood brain barrier | toxicity or deleterious off-target effects [5]: does not exhibit any apparent toxicity or deleterious off-target effects

From patent publication US20240207207A1, “METHODS FOR MITIGATING AND PREVENTING PROTEOSTASIS-BASED INJURIES” (San Diego State University (SDSU) Foundation, dba San Diego …, priority 2018, published 2024)
